Among the test systems are HOP-62 NSCLC; SNB-75 CNS; SF-295 CNS; TK-10 renal; KM12 colon; HL-60(TB) leukemia; HCT-15 colon; OVCAR-3 ovarian; DU-145 prostate.
Holding throughout (assay): growth of human tumour cells (NCI), 48 h

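1) Cells in 96-well plates. 2) Compound, 48 h, 5 concentrations. 3) Linear interpolation between surrounding doses. 4) Unreached endpoint = highest concentration. The concentration for 50% growth inhibition is given as GI50. TGI is the concentration that stops growth completely.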

In the case of `CC1(C)OC2OC(COC(=O)C(c3ccccc3)c3ccccc3)C3OC(C)(C)OC3C2O1` (centres undefined), the GI50 with HOP-62 NSCLC was > 100 µM; in the assay on TK-10 renal, > 100 µM; in the assay on HL-60(TB) leukemia it was 2.99 µM. Further, the TGI in the assay with HOP-62 NSCLC is > 100 µM; with SNB-75 CNS it was 87.2 µM; in the assay with SF-295 CNS it was > 100 µM; in the assay with TK-10 renal, > 100 µM; with KM12 colon, > 100 µM; in the assay with HL-60(TB) leukemia it was 13.8 µM. The TGI with HCT-15 colon is > 100 µM.
As for `Nc1c(C(=O)Nc2ccccc2O)[n+]([O-])c2ccccc2[n+]1[O-]`, the TGI with HOP-62 NSCLC, with SNB-75 CNS, with SF-295 CNS, in the assay with KM12 colon, with HL-60(TB) leukemia and in the assay on HCT-15 colon was > 100 µM in each case. Also, in the assay with OVCAR-3 ovarian, the TGI was > 100 µM.
Take `Nc1ccn([C@@H]2S[C@H](CO)[C@@H](O)[C@@H]2F)c(=O)n1`: the GI50 was 0.0526 µM with HOP-62 NSCLC; 0.0424 µM in the assay on DU-145 prostate; 2.73 µM in the assay with SNB-75 CNS; 0.452 µM in the assay on SF-295 CNS; > 100 µM in the assay on TK-10 renal; 8.65 µM with KM12 colon. The GI50 in the assay on HL-60(TB) leukemia was 0.0792 µM; in the assay on HCT-15 colon, 0.413 µM; in the assay on OVCAR-3 ovarian, > 51.1 µM. Further, the TGI is > 74.3 µM in the assay with HOP-62 NSCLC; > 100 µM in the assay with DU-145 prostate; > 100 µM with SNB-75 CNS; > 24.7 µM in the assay on SF-295 CNS; > 100 µM with TK-10 renal; > 100 µM with KM12 colon. Besides, the TGI in the assay on HCT-15 colon and with OVCAR-3 ovarian was > 100 µM each time.
As to `CC(C)=CC(=O)CC(=O)C(=O)NCCNC(=O)C(=O)CC(=O)C=C(C)C`, the TGI in the assay with HOP-62 NSCLC, with SNB-75 CNS, in the assay with SF-295 CNS, with TK-10 renal, with KM12 colon and with HCT-15 colon was > 50 µM throughout. The TGI with OVCAR-3 ovarian is > 50 µM.
Take `O=C(Nc1ccc(Cl)c(Cl)c1)C1C(=O)N(c2ccc(Cl)c(Cl)c2)C(=O)/C1=N\O` (centres undefined): the TGI in the assay with HOP-62 NSCLC, with SNB-75 CNS, in the assay on SF-295 CNS, with TK-10 renal, in the assay with HCT-15 colon and in the assay on OVCAR-3 ovarian was > 100 µM throughout.
In the case of `C1CCN2CC3CONC3C2C1` (centres undefined), the TGI with HOP-62 NSCLC, in the assay on SNB-75 CNS, in the assay on SF-295 CNS, with TK-10 renal, with KM12 colon and in the assay with HL-60(TB) leukemia was > 100 µM in each case. Moreover, the TGI with HCT-15 colon and in the assay on OVCAR-3 ovarian was > 100 µM throughout.
As for `CCOc1ccc(/C=C2/C(=O)N=C(N)N=C2N)cc1OCC`, the TGI in the assay on SNB-75 CNS, in the assay on SF-295 CNS, in the assay with TK-10 renal, with KM12 colon, in the assay with HL-60(TB) leukemia and in the assay on HCT-15 colon was > 100 µM in each case. In the assay with OVCAR-3 ovarian, the TGI was > 100 µM.
For `Nc1c(-c2nc3ccccc3s2)[n+]([O-])c2ccccc2[n+]1[O-]`, the TGI with HOP-62 NSCLC was 78.5 µM; in the assay on SNB-75 CNS, 76.5 µM; in the assay on SF-295 CNS, 72.5 µM; in the assay on TK-10 renal, > 100 µM; with KM12 colon, > 100 µM; in the assay on HL-60(TB) leukemia, 93.5 µM. In the assay with OVCAR-3 ovarian, this compound gave a TGI of 60.6 µM.
In the case of `CN(C)CCNC(=O)c1cccc2cc3ccc4ccccc4c3nc12`, the TGI was 0.309 µM in the assay with HOP-62 NSCLC; 0.399 µM in the assay on SNB-75 CNS; 0.886 µM in the assay on SF-295 CNS; 0.904 µM in the assay on TK-10 renal; 1.2 µM in the assay with KM12 colon; 0.27 µM with HL-60(TB) leukemia. In addition, the TGI with HCT-15 colon was determined as 0.593 µM; in the assay with OVCAR-3 ovarian, 0.738 µM.
With `CC1=C(C(=O)CC(=O)C(=O)Nc2ccccc2C)Sc2ccccc2N1`, the TGI in the assay with HOP-62 NSCLC, in the assay on SNB-75 CNS, in the assay with SF-295 CNS, in the assay on TK-10 renal, in the assay on KM12 colon and with HL-60(TB) leukemia was > 100 µM throughout. Moreover, the TGI in the assay with HCT-15 colon and in the assay on OVCAR-3 ovarian was > 100 µM throughout.
For the compound `c1ccc2c(c1)[O][Sn][O]2`, the GI50 with HOP-62 NSCLC is 36.1 µg/mL; in the assay with SNB-75 CNS, 100 µg/mL; in the assay on SF-295 CNS, > 150 µg/mL; with TK-10 renal, 101 µg/mL; in the assay on KM12 colon it was 21.8 µg/mL; with HL-60(TB) leukemia, 1.55 µg/mL. Also, the GI50 in the assay with HCT-15 colon was 20.6 µg/mL; with OVCAR-3 ovarian, 10.9 µg/mL. Besides, the TGI with HOP-62 NSCLC is > 150 µg/mL; with SNB-75 CNS, > 150 µg/mL; in the assay with SF-295 CNS, > 150 µg/mL; in the assay with TK-10 renal, > 150 µg/mL; with KM12 colon it was > 150 µg/mL; in the assay on HL-60(TB) leukemia it was 6.37 µg/mL. Further, the TGI with HCT-15 colon and in the assay with OVCAR-3 ovarian was > 150 µg/mL in each case.
With `CCOC(=O)COc1cccc2occc(=O)c12`, the TGI in the assay on HOP-62 NSCLC, in the assay with SF-295 CNS, with TK-10 renal, in the assay with KM12 colon, with HL-60(TB) leukemia and in the assay on HCT-15 colon was > 100 µM each time. Further, in the assay on OVCAR-3 ovarian, the TGI is > 100 µM.
For `Cn1cc(NC(=O)c2cc(NC(=O)CCCCCCCC(=O)Nc3cc(C(=O)Nc4cc(C(=O)NCCC(=N)N)n(C)c4)n(C)c3)cn2C)cc1C(=O)NCCC(=N)N`, the TGI in the assay on HOP-62 NSCLC is > 100 µM; in the assay on SNB-75 CNS it was 70.8 µM; in the assay on SF-295 CNS, > 100 µM; in the assay with TK-10 renal it was 36.7 µM; in the assay with KM12 colon, 20 µM; in the assay on HL-60(TB) leukemia it was 16.3 µM. In addition, the TGI with HCT-15 colon was > 100 µM; with OVCAR-3 ovarian, 65.7 µM.
`CCOC(=O)C1=C(C)N(Cc2ccc(Cl)cc2Cl)[C@]2(C#N)C(O)=C(Cl)C(Cl)=C(O)[C@]12C#N`: the GI50 with HOP-62 NSCLC is > 100 µM; in the assay on DU-145 prostate, 16.7 µM; in the assay with SNB-75 CNS it was 32.2 µM; in the assay on SF-295 CNS, > 100 µM; in the assay on TK-10 renal, 84.7 µM; in the assay on KM12 colon it was > 100 µM. For the same compound, the GI50 is 31.9 µM in the assay with HL-60(TB) leukemia, 62 µM in the assay with HCT-15 colon and 46.7 µM in the assay on OVCAR-3 ovarian. Also, the TGI in the assay on HOP-62 NSCLC was > 100 µM; in the assay with DU-145 prostate, 38.7 µM; in the assay with SNB-75 CNS, 86.4 µM; in the assay on SF-295 CNS, > 100 µM; in the assay on TK-10 renal, > 100 µM; with KM12 colon, > 100 µM. Also, the TGI is 76.9 µM in the assay on HL-60(TB) leukemia, > 100 µM in the assay on HCT-15 colon and > 100 µM with OVCAR-3 ovarian.
